# Laboratory results as given in US20230172920A1, “DOSING REGIMEN FOR TREATING A DISEASE MODULATED BY CSF-1R” (Novartis AG, priority 2020, published 2023).
# Read-outs that look alike come from different tables or passages of the source.
# Key:
# CSF-1R = assay: Mouse CSF-1 levels in plasma as biomarker for CSF-1R inhibition (MC38 model); format: in vivo; details: BLZ945 4 days on/3 days off, vs vehicle
# Description: In order to measure increase of CSF1 in the plasma as a biomarker for CSF-1R inhibition blood sampling was performed at baseline and 6 hours later on indicated days (FIG. 4).
# Mouse CSF-1 levels in plasma. A. Changes in CSF-1 levels over time in the different treatment groups. B. Statistical analysis of CSF-1 levels in vehicle vs. BLZ945 4 days on/3 days off and in vehicle vs. BLZ945 4 days on/3 days off in combination with anti-PD-1. Statistical significance was calculated using a two-tailed, unpaired, non-parametric Mann-Whitney Test was performed to compare treatment to control groups.
# [1] = tested on: tumor associated macrophages (TAM) and Tregs; assay: Tumor infiltrating macrophages and Tregs by flow cytometry (MC38 model); format: in vivo, mouse; details: BLZ945 4 days on/3 days off, single agent and with anti-PD-1
# Description: In order to access the dynamics of the tumor associated immune cells a repeat study using only the 4 days on/3 days off schedule as a single agent and in combination with anti-PD-1 was performed.
# FIG. 5 Analysis of tumor infiltrating macrophages (FIG. 5A) and Tregs (FIG. 5B) upon treatment with BLZ945 in a 4 days on/3 days off schedule on day 10 (A) and day 14 (B) and in combination with anti-PD-1 by flow cytometry. Statistical significance was calculated using a two-tailed, unpaired, non-parametric Mann-Whitney Test was performed to compare treatment to control groups.
# [2] = AST/ALT elevation across single agent dose groups (clinical data, CTCAE); format: in vivo, human
# Description: A comparison of AST and ALT elevation across single agent dose groups for the compound of Formula (I) was performed for the once per week (Q1WV) dosing regimen and the 4 days on/10 days off dosing regimen over a range of dosages. FIGS. 6 and 7 show the AST and ALT elevations, respectively. The Common Terminology Criteria for Adverse Events (CTCAE) was used to evaluate AST and ALT levels.
# [3] = Blood and spinal cord exposure, 8-week SOD1G93A efficacy study; format: in vivo, SOD1G93A mouse; details: for Kp at 3 h / concentration at 3 h: mouse; for Kp at 3 h: spinal cord relative to blood; for concentration at 3 h: blood, read-out: Blood conc.
# Description: (§1) BLZ945 was dosed over an 8-week period in a mouse model of ALS (in house data). BLZ945 was tested for efficacy in preventing or delaying disease progression in the SOD1G93A ALS mouse (RD-2019-00092). […] Normal body weight gain is also impaired in this model. These physiological impairments are considered as mechanistic readouts given that they best recapitulate the clinical disease phenotype (Turner et al 2013). Animals were dosed from 8 to 16 weeks of age with daily (q.d) doses of BLZ945 at either 65 mg/kg, 170 mg/kg, or 170 mg/kg delivered intermittently with a 7 day ON/7 day OFF regimen.
# Microglia were depleted by greater than 90% with the high dose (170 mg/kg) of BLZ945 and by about 50% with the low dose (65 mg/kg). […] Blood and CNS exposure to BLZ945 were measured at 3 hours post-dose on the day of necropsy (Table 8). BLZ945 spinal cord exposure ratios (relative to blood) were consistent across dose groups at approximately 0.4 (Table 9).
# SOD1G93A ALS mouse = assay: Body weight, grip strength and CMAP in the SOD1G93A ALS mouse, 8-week study (RD-2019-00092); format: in vivo
# Description: as §1
# FIG. 12: The effect of BLZ945 on body weight change over the eight-week study period. Data are presented as the percentage of body weight change relative to the first dosing day. Values are group means ([…]). Statistical analysis was by mixed linear effect model for repeated measures. * p<0.05; ** p<0.01; **** p<0.0001.
# Hind limb grip strength and compound muscle action potentials (CMAP), an assessment of neuromuscular integrity, were measured as mechanistic readouts. In grip strength measurements, SOD1 G93A mice lost muscle force continuously after the 8th week of age. […] This was intermediate to the vehicle-treated SOD1 G93A and NCAR controls (FIG. 13 A). […] However, CMAPs were still lower than those of NCAR animals from study week 4 onward.
# FIG. 13: (A) The effect of BLZ945 on grip strength over the eight-week study period. Values are group means±SD (n=12-15). Statistical analysis was by mixed linear effect model for repeated measures. * p<0.05; ** p<0.01; *** p<0.001. (B) The effect of BLZ945 on TA muscle CMAP over the eight-week study period. Values are group means±SD (n=12-15). Statistical analysis was by mixed linear effect model for repeated measures. * […]; ** p<0.01; *** p<0.001.
smiles,measurement,setting,value
"CNC(=O)c1cc(Oc2ccc3nc(N[C@@H]4CCCC[C@H]4O)sc3c2)ccn1 [BLZ945, 4-((2-(((1R,2R)-2-hydroxycyclohexyl)amino)benzo[d]thiazol-6-yl)oxy)-N-methylpicolinamide]",CSF-1 plasma levels,CSF-1R,statistically significant increase
same,TAM in tumor,[1]; after 10 and 14 days of treatment,significant decrease
same,Tregs in tumor,[1]; day 10 after treatment start,transient decrease
same,AST and ALT elevations,"[2]; 4 days on/10 days off compared with Q1W dosing regimen, single agent",better controlled
same,ALT/AST levels,[2]; 4 days on/10 days off schedule,recover to baseline before next dose
same,AST and ALT levels,"[2]; Q1W dose, even at lowest dose of 300 mg",spikes above the G2 level
same,Spinal Cord Conc.,"[3]; 65 mg/kg q.d., 3 h post-dose",11799.8 pmol/g
same,Spinal Cord Conc.,"[3]; 170 mg/kg CONT, 3 h post-dose",28358.8 pmol/g
same,Spinal Cord Conc.,"[3]; 170 mg/kg INT (7 day ON/7 day OFF), 3 h post-dose",18573.5 pmol/g
same,Kp at 3 h,"[3]; SOD1G93A (transgenic ALS model), 170 mg/kg CONT, 3 h post-dose, read-out: Spinal Cord/Blood ratio",0.42
same,concentration at 3 h,"[3]; SOD1G93A, 65 mg/kg, 65 mg/kg q.d., 3 h post-dose",29.3 µM
same,concentration at 3 h,"[3]; SOD1G93A, 170 mg/kg, 170 mg/kg CONT, 3 h post-dose",66.3 µM
same,concentration at 3 h,"[3]; SOD1G93A, 170 mg/kg, 170 mg/kg INT (7 day ON/7 day OFF), 3 h post-dose",50.4 µM
same,Kp at 3 h,"[3]; SOD1G93A, 65 mg/kg q.d., 3 h post-dose, read-out: Spinal Cord/Blood ratio",0.42
same,Kp at 3 h,"[3]; SOD1G93A, 170 mg/kg INT (7 day ON/7 day OFF), 3 h post-dose, read-out: Spinal Cord/Blood ratio",0.36
same,Kp at 3 h,"[3]; SOD1G93A, across dose groups, 3 hours post-dose, read-out: spinal cord exposure ratios (relative to blood)",~0.4
same,tibialis anterior muscle CMAP,SOD1G93A ALS mouse; 65 mg/kg,significantly higher CMAPs than untreated controls until week 6
same,body weight gain at end of study,"SOD1G93A ALS mouse; 65 mg/kg and 170 mg/kg 7 days on/7 days off groups, NCAR approx. 16%, vehicle approx. 7%",approximately 12%
same,hind limb grip strength,"SOD1G93A ALS mouse; 65 mg/kg, vs vehicle-treated SOD1 G93A controls, up to week 6 of dosing",significantly higher grip strength
same,body weight gain,"SOD1G93A ALS mouse; 170 mg/kg continuously, 8 weeks",constant weight gain at the same rate as NCAR mice
same,tibialis anterior muscle CMAP,"SOD1G93A ALS mouse; 170 mg/kg, continuous or intermittent dosing",significantly reduced decline in CMAPs throughout the study period
same,hind limb grip strength,"SOD1G93A ALS mouse; 170 mg/kg, continuously or intermittently, vs vehicle-treated SOD1 G93A",maintained significantly greater grip force throughout the study period
